Measured values from patent US9029391B2 (priority 2011, dated 2015).

The molecules below were run on HIV (assay: MT4 Assay (anti-HIV activity)). Conditions: Human immunodeficiency virus 1, 96 h, read-out: HIV MT4 Assay IC50, HTLV-1 transformed cell line MT-4, cell titer glo, 10 point dose response curve.
Assay type: cell-based
In short: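 IC50 values were fitted to 10-point dose-response series (3-4-fold dilutions, range >1000-fold), normalized to no-compound control. CellTiter-Glo read-out was taken after 96 hours in HTLV-1-transformed MT-4 cells. Cytotoxicity was measured in parallel under identical conditions.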
Work on `CCc1c(-c2c(C(OC(C)(C)C)C(=O)O)n(C)c(=O)c3ccccc23)ccc2c1CCCO2` (centres unmarked) [Example 121, 2-(tert-butoxy)-2-[4-(5-ethyl-3,4-dihydro-2H-1-benzopyran-6-yl)-2-methyl-1-oxo-1,2-dihydroisoquinolin-3-yl]acetic acid] yielded an IC50 of 940 nM. `Cc1c(-c2c(C(OC(C)(C)C)C(=O)O)n(C)c(=O)c3cc(OCC(=O)O)ccc23)ccc2c1CCCO2` (centres unmarked) [Example 122, 2-({3-[(tert-butoxy)(carboxy)methyl]-2-methyl-4-(5-methyl-3,4-dihydro-2H-1-benzopyran-6-yl)-1-oxo-1,2-dihydroisoquinolin-7-yl}oxy)acetic acid] gave an IC50 of 50000 nM. With `Cc1c(-c2c(C(OC(C)(C)C)C(=O)O)n(C)c(=O)c3cc(OS(=O)(=O)N(C)C)ccc23)ccc2c1CCCO2` (centres unmarked) [Example 123, 2-(tert-butoxy)-2-{7-[(dimethylsulfamoyl)oxy]-2-methyl-4-(5-methyl-3,4-dihydro-2H-1-benzopyran-6-yl)-1-oxo-1,2-dihydroisoquinolin-3-yl}acetic acid] the IC50 was 1220 nM. `Cc1ccc2c(-c3cc(F)c4c(c3C)CCCO4)c(C(OC(C)(C)C)C(=O)O)n(C)c(=O)c2c1` (centres unmarked) [Example 124, 2-(tert-butoxy)-2-[4-(8-fluoro-5-methyl-3,4-dihydro-2H-1-benzopyran-6-yl)-2,7-dimethyl-1-oxo-1,2-dihydroisoquinolin-3-yl]acetic acid] gave an IC50 of 130 nM. `COc1ccc2c(-c3cc(F)c4c(c3C)CCCO4)c(C(OC(C)(C)C)C(=O)O)n(C)c(=O)c2c1` (centres unmarked) [Example 125, 2-(tert-butoxy)-2-[4-(8-fluoro-5-methyl-3,4-dihydro-2H-1-benzopyran-6-yl)-7-methoxy-2-methyl-1-oxo-1,2-dihydroisoquinolin-3-yl]acetic acid] was tested, and the IC50 was 320 nM. `COc1ccc2c(-c3ccc4c(c3C)CCCO4)c(C(OC(C)(C)C)C(=O)O)n(C)c(=O)c2c1F` (centres unmarked) [Example 126, 2-(tert-butoxy)-2-[8-fluoro-7-methoxy-2-methyl-4-(5-methyl-3,4-dihydro-2H-1-benzopyran-6-yl)-1-oxo-1,2-dihydroisoquinolin-3-yl]acetic acid] showed an IC50 of 360 nM. `Cc1c(-c2c(C(OC(C)(C)C)C(=O)O)n(C)c(=O)c3cc(C(F)(F)F)ccc23)ccc2c1CCCO2` (centres unmarked) [Example 127, 2-(tert-butoxy)-2-[2-methyl-4-(5-methyl-3,4-dihydro-2H-1-benzopyran-6-yl)-1-oxo-7-(trifluoromethyl)-1,2-dihydroisoquinolin-3-yl]acetic acid] gave an IC50 of 1140 nM. `Cc1c(-c2c(C(OC(C)(C)C)C(=O)O)n(C)c(=O)c3cc(OCc4ccc(S(C)(=O)=O)cc4)ccc23)ccc2c1CCCO2` (centres unmarked) [Example 128, 2-(tert-butoxy)-2-{7-[(4-methanesulfonylphenyl)-methoxy]-2-methyl-4-(5-methyl-3,4-dihydro-2H-1-benzopyran-6-yl)-1-oxo-1,2-dihydroisoquinolin-3-yl}acetic acid] showed an IC50 of 380 nM. Work on `Cc1c(-c2c(C(OC(C)(C)C)C(=O)O)n(C)c(=O)c3cc(OCc4ccccn4)ccc23)ccc2c1CCCO2` (centres unmarked) [Example 129, 2-(tert-butoxy)-2-[2-methyl-4-(5-methyl-3,4-dihydro-2H-1-benzopyran-6-yl)-1-oxo-7-(pyridin-2-ylmethoxy)-1,2-dihydroisoquinolin-3-yl]acetic acid] yielded an IC50 of 200 nM. Molecule `COc1cc2c(=O)n(C)c(C(OC(C)(C)C)C(=O)O)c(-c3ccc4c(c3C)CCCO4)c2cc1Cl` (centres unmarked) [Example 130, 2-(tert-butoxy)-2-[6-chloro-7-methoxy-2-methyl-4-(5-methyl-3,4-dihydro-2H-1-benzopyran-6-yl)-1-oxo-1,2-dihydroisoquinolin-3-yl]acetic acid] has an IC50 of 3750 nM. `Cc1ccc2c(-c3cc(F)c4c(c3C)CCCO4)c([C@H](OC(C)(C)C)C(=O)O)n(C)c(=O)c2c1` [Example 131, (2S)-2-(tert-butoxy)-2-[4-(8-fluoro-5-methyl-3,4-dihydro-2H-1-benzopyran-6-yl)-2,7-dimethyl-1-oxo-1,2-dihydroisoquinolin-3-yl]acetic acid] was tested, and the IC50 was 20 nM. Work on `Cc1c(-c2c(C(OC(C)(C)C)C(=O)O)n(C)c(=O)c3cc(OCc4ccc(C(F)(F)F)cc4)ccc23)ccc2c1CCCO2` (centres unmarked) [Example 132, 2-(tert-butoxy)-2-[2-methyl-4-(5-methyl-3,4-dihydro-2H-1-benzopyran-6-yl)-1-oxo-7-{[4-(trifluoromethyl)phenyl]-methoxy}-1,2-dihydroisoquinolin-3-yl]acetic acid] yielded an IC50 of 310 nM. `Cc1nc(COc2ccc3c(-c4cc(F)c5c(c4C)CCCO5)c(C(OC(C)(C)C)C(=O)O)n(C)c(=O)c3c2)c(C)o1` (centres unmarked) [Example 133, 2-(tert-butoxy)-2-{7-[(dimethyl-1,3-oxazol-4-yl)methoxy]-4-(8-fluoro-5-methyl-3,4-dihydro-2H-1-benzopyran-6-yl)-2-methyl-1-oxo-1,2-dihydroisoquinolin-3-yl}acetic acid] showed an IC50 of 930 nM. Work on `Cc1c(-c2c(C(OC(C)(C)C)C(=O)O)n(C)c(=O)c3cc(OCc4ccc(F)cc4F)ccc23)ccc2c1CCCO2` (centres unmarked) [Example 134, 2-(tert-butoxy)-2-{7-[(2,4-difluorophenyl)methoxy]-2-methyl-4-(5-methyl-3,4-dihydro-2H-1-benzopyran-6-yl)-1-oxo-1,2-dihydroisoquinolin-3-yl}acetic acid] yielded an IC50 of 70 nM. `Cc1c(-c2c(C(OC(C)(C)C)C(=O)O)n(C)c(=O)c3cc(OC(C)C)ccc23)ccc2c1CCCO2` (centres unmarked) [Example 135, 2-(tert-butoxy)-2-[2-methyl-4-(5-methyl-3,4-dihydro-2H-1-benzopyran-6-yl)-1-oxo-7-(propan-2-yloxy)-1,2-dihydroisoquinolin-3-yl]acetic acid] showed an IC50 of 140 nM. `Cc1c(-c2c(C(OC(C)(C)C)C(=O)O)n(C)c(=O)c3cc(OCc4ccc(Cl)cc4)ccc23)ccc2c1CCCO2` (centres unmarked) [Example 136, 2-(tert-butoxy)-2-{7-[(4-chlorophenyl)methoxy]-2-methyl-4-(5-methyl-3,4-dihydro-2H-1-benzopyran-6-yl)-1-oxo-1,2-dihydroisoquinolin-3-yl}acetic acid] was tested, and the IC50 was 100 nM. Work on `Cc1c(-c2c(C(OC(C)(C)C)C(=O)O)n(C)c(=O)c3cc(OCc4cncnc4)ccc23)ccc2c1CCCO2` (centres unmarked) [Example 137, 2-(tert-butoxy)-2-[2-methyl-4-(5-methyl-3,4-dihydro-2H-1-benzopyran-6-yl)-1-oxo-7-(pyrimidin-5-ylmethoxy)-1,2-dihydroisoquinolin-3-yl]acetic acid] yielded an IC50 of 1030 nM. Work on `Cc1c(-c2c(C(OC(C)(C)C)C(=O)O)n(C)c(=O)c3cc(OCc4ccc(F)c(F)c4)ccc23)ccc2c1CCCO2` (centres unmarked) [Example 138, 2-(tert-butoxy)-2-{7-[(3,4-difluorophenyl)methoxy]-2-methyl-4-(5-methyl-3,4-dihydro-2H-1-benzopyran-6-yl)-1-oxo-1,2-dihydroisoquinolin-3-yl}acetic acid] yielded an IC50 of 70 nM. `Cc1c(-c2c([C@H](OC(C)(C)C)C(=O)O)n(C)c(=O)c3cc(F)ccc23)cc(F)c2c1CCCO2` [Example 139, (2S)-2-(tert-butoxy)-2-[7-fluoro-4-(8-fluoro-5-methyl-3,4-dihydro-2H-1-benzopyran-6-yl)-2-methyl-1-oxo-1,2-dihydroisoquinolin-3-yl]acetic acid] showed an IC50 of 30 nM. Molecule `Cc1c(-c2c([C@H](OC(C)(C)C)C(=O)O)n(C)c(=O)c3ccccc23)ccc2c1CCCO2` [Example 140, (2S)-2-(tert-butoxy)-2-[2-methyl-4-(5-methyl-3,4-dihydro-2H-1-benzopyran-6-yl)-1-oxo-1,2-dihydroisoquinolin-3-yl]acetic acid] has an IC50 of 110 nM. Molecule `Cc1c(-c2c([C@H](OC(C)(C)C)C(=O)O)n(C)c(=O)c3cc(OCCF)ccc23)ccc2c1CCCO2` [Example 141, (2S)-2-(tert-butoxy)-2-[7-(2-fluoroethoxy)-2-methyl-4-(5-methyl-3,4-dihydro-2H-1-benzopyran-6-yl)-1-oxo-1,2-dihydroisoquinolin-3-yl]acetic acid] has an IC50 of 30 nM. Molecule `Cc1c(-c2c(C(OC(C)(C)C)C(=O)O)n(C)c(=O)c3cc(OCc4cccs4)ccc23)ccc2c1CCCO2` (centres unmarked) [Example 142, 2-(tert-butoxy)-2-[2-methyl-4-(5-methyl-3,4-dihydro-2H-1-benzopyran-6-yl)-1-oxo-7-(thiophen-2-ylmethoxy)-1,2-dihydroisoquinolin-3-yl]acetic acid] has an IC50 of 30 nM. For `Cc1c(-c2c([C@H](OC(C)(C)C)C(=O)O)n(C)c(=O)c3cc(OCc4ccccn4)ccc23)cc(F)c2c1CCCO2` [Example 143, (2S)-2-(tert-butoxy)-2-[4-(8-fluoro-5-methyl-3,4-dihydro-2H-1-benzopyran-6-yl)-2-methyl-1-oxo-7-(pyridin-2-ylmethoxy)-1,2-dihydroisoquinolin-3-yl]acetic acid], the IC50 was 30 nM. In the case of `Cc1c(-c2c([C@H](OC(C)(C)C)C(=O)O)n(C)c(=O)c3cc(OCc4ccccn4)ccc23)ccc2c1CCCO2` [Example 144, (2S)-2-(tert-butoxy)-2-[2-methyl-4-(5-methyl-3,4-dihydro-2H-1-benzopyran-6-yl)-1-oxo-7-(pyridin-2-ylmethoxy)-1,2-dihydroisoquinolin-3-yl]acetic acid], the IC50 is reported as 40 nM. Molecule `Cc1c(-c2c(C(OC(C)(C)C)C(=O)O)n(C)c(=O)c3cc(OCc4ccc(F)cc4)ccc23)cc(F)c2c1CCCO2` (centres unmarked) [Example 145, 2-(tert-butoxy)-2-[4-(8-fluoro-5-methyl-3,4-dihydro-2H-1-benzopyran-6-yl)-7-[(4-fluorophenyl)methoxy]-2-methyl-1-oxo-1,2-dihydroisoquinolin-3-yl]acetic acid] has an IC50 of 110 nM. `Cc1c(-c2c(C(OC(C)(C)C)C(=O)O)n(C)c(=O)c3cc(OCc4ccc(OC(F)(F)F)cc4)ccc23)ccc2c1CCCO2` (centres unmarked) [Example 146, 2-(tert-butoxy)-2-[2-methyl-4-(5-methyl-3,4-dihydro-2H-1-benzopyran-6-yl)-1-oxo-7-{[4-(trifluoromethoxy)phenyl]-methoxy}-1,2-dihydroisoquinolin-3-yl]acetic acid] was tested, and the IC50 was 260 nM.
